# Tests used:
# [1] = tested on: Ndufs4(KO) mouse model of LS; assay: Survival studies and overall disease course in Ndufs4(KO) mice; format: in vivo
# Procedure: Ndufs4(+/−) mice were bred to produce Ndufs4(KO) (Ndufs4(−/−)) offspring. Mice were weaned at 20-21 days of age. Ndufs4(KO) animals were housed with a minimum of one control littermate for warmth and stimulation. Mice were weighed, and health assessed, a minimum of 3 times per week, every other day (daily for IP injected mice, see herein). Where longitudinal blood point-of-care data was collected, this was performed during these health checks. Wetted chow in a dish on the bottom of each cage, and in-cage water bottles, were provided to all cages housing Ndufs4(KO) mice following the onset of disease so that the ability to find or reach food or water was not a limiting factor for survival.
# Doses of each drug was based on published data for use in animals. […] Blood and tissue concentrations reached biologically relevant levels for each of the tested inhibitors.
# Pharmacologic interventions and chow formulation. Standard mouse chow was ground to a power and mixed with drugs at the doses desired (see FIGS. 4A-4L). 300 mL of 1% agar melted in sterile water was added per kilogram of powdered chow and the mixture was pelleted and baked at 37° C. for 3-5 hours to dry. Pellets were then stored at 4° C. for short term (up to 90 days) or −20° C. for long-term (up to 6 months) storage. It was previously shown that this processing had no impact on animal health or survival (Johnson et al. Front Genet. 2015; 6:247). […]
# To determine whether the benefits of mTOR inhibition in Ndufs4(KO) model result from disruption of PI3K mediated signaling, animals were treated from weaning (post-natal day 21, P21) with potent, orally available, isoform specific inhibitors of the catalytic subunits of PI3K: BYL719, GSK2636771, CAL-101, and IPI-549, inhibitors of p110α, p110β, p110δ, and p110γ, respectively.
# [2] = tested on: microglia in mixed neonatal brain-cell cultures; assay: Fraction of microglia in mixed primary brain cultures (Iba1 staining); format: cell-based, mouse
# Procedure: Mixed brain cell culturing and staining. Briefly, using sterile technique, brains were removed from neonatal pups into ice-cold HBSS (Gibco cat. #14025076). Brains were washed three times in cold PBS. After the third wash, brains were minced using surgical scissors into small, fine pieces. The minced brain was centrifuged at 100 g for 5 min. Once pelleted, PBS was removed and 0.05% trypsin/EDTA (Gibco) was added. The tissue in trypsin/EDTA was then incubated at 37° C. with gentle shaking for 15-30 min, with intermittent mixing and supplemental mincing, until the solution was homogenous and without tissue segments. After incubation, the minced tissue was placed back into the centrifuge at 100 g 5 min. Pellet was washed 3× with cold PBS before adding fresh media to each tube. The tissue was further dissociated using 1000 μL pipet until the solution became cloudy. The sample was washed through a sterile 70-micron cell strainer (Corning) into a 50 mL falcon tube, then plated onto T75 poly-d-lysine coated Nunclon flasks (Nunc EasyFlask132704) at a ratio of one brain to two flasks. After 24 hours, dead cell/debris were washed and media replaced. Cells were then grown for 1 additional day, split onto multi-well plates with poly-d-lysine coated coverslips (Cellware 12 mm round coverslips) at 25% confluence with ABI-009 or pexidartinib (for dose-response) added. […]
# [3] = tested on: control and Ndufs4(KO) mice; assay: Glucose tolerance test (GTT) and glucose induced lactate test; format: in vivo, mouse; conditions: 2 g/kg glucose IP; pexidartinib 300 mg/kg/d in chow, IPI-549 100 mg/kg/d in chow, rapamycin (ABI-009) 8 mg/kg/d IP
# Description: Point-of-care glucose and lactate testing. Blood glucose and lactate measurements were collected using point-of-care meters (Prodigy Autocode® glucose meter, product #51850-3466188, Prodigy® Diabetes Care, LLC, Charlotte, NC; lactate assay meter, product #40828, Nova Biomedical, Waltham, MA) and the tail-prick method, as previously described (Stokes et al. Elife 2021; 10:e65400).
# Glucose tolerance test (GTT) and glucose induced lactate test. Prior to performing the GTT, mice were fasted for 4 hours, from 10 AM-2 PM. The fasting duration was limited to 4 hours given the sensitivity of untreated Ndufs4(KO) animals to hypoglycemia and related sequelae (dysregulation of body temperature, hypoglycemia induced seizure, etc.). For the ABI-009 cohort, mice received their daily ABI-009 treatment at the start of this fasting period. At the end of the 4 hour fast, baseline blood glucose and lactate values were collecting using point-of-care meters and the tail-prick method. Mice were then injected by IP with 2 g/kg dextrose (10 microliters/gram body weight of 200 mg/mL glucose in 1×PBS, 0.2 micron sterile filtered) using an insulin syringe (31-gauge, 6 mm length, 3/10 cc, BD Veo Ultra-Fine needle). Glucose and lactate levels were measured using a minimally invasive tail-prick method at designated timepoints post-injection.
# [4] = cited from earlier work
compound,measurement,setting,value
"FC(F)(F)c1ccc(CNc2ccc(Cc3c[nH]c4ncc(Cl)cc34)cn2)cn1 [pexidartinib, 5-[(5-chloro-1H-pyrrolo[2,3-b]pyridin-3-yl)methyl]-N-[[6-(trifluoromethyl)pyridin-3-yl]methyl]pyridin-2-amine]",lifespan of treated Ndufs4(KO) animals relative to treated control mice,"[1]; 300 mg/kg/d, drug toxicity appears to limit lifespan",live as long as treated control mice
same,impact on disease (overall) / disease or survival,[1]; Ndufs4(KO) mice,dramatically attenuates disease
same,survival,[1]; Ndufs4(KO) mice vs untreated,dramatically extended survival
same,extension of median survival,"[1]; Ndufs4(KO) mice, 300 mg/kg/day in chow",300%
same,cause of death of control animals,[1]; control animals on 300 mg/kg/d,died of unknown causes with no evident illness
same,survival compared to untreated Ndufs4(KO) mice,"[1]; each of 100-300 mg/kg/day, dose-dependent",statistically significant increase
same,overt signs of severe neurologic sequelae prior to death,[1]; majority of high dose animals,did not show overt signs of severe neurologic sequelae prior to death
same,maximum effect on microglia,[2],nearly complete depletion of microglia
same,fraction of microglia present in mixed neonatal brain-cell cultures,"[2]; dose-response, fixed on day 7",dose-dependently reduced
same,blood lactate spike in response to a glucose bolus,[3],prevented this spike in blood lactate
same,liver damage,[4]; patients,known to cause liver damage
same,hair color in humans,[4]; reports in humans,hair whitening in humans

# — US20230321063A1, “COMPOSITIONS AND METHODS TO REDUCE NEUROINFLAMMATION” (Seattle Children's Hospital d/b/a Seattle Children's …, priority 2020, published 2023)
